The record followed here is patent publication US8889682B2, “Inhibitors of bruton'S tyrosine kinase” (Hoffmann-La Roche Inc., priority 2011, dated 2014).

This assay relates to B cell receptor-mediated activation of B cells in human blood (CD69 expression). Briefly: Inhibition of B cell activation in whole blood measured by CD69 expression. Conditions: anti-IgM stimulation, 20 hours, CD69-positive cells that are also CD20-positive, read-out: HWB IC50. In kind it is cell-based. How it is done:
Inhibition of B Cell Activation in Whole Blood Measured by CD69 Expression
A procedure to test the ability of Btk inhibitors to suppress B cell receptor-mediated activation of B cells in human blood is as follows:
Human whole blood (HWB) is obtained from healthy volunteers, with the following restrictions: 24 hr drug-free, non-smokers. Blood is collected by venipuncture into Vacutainer tubes anticoagulated with sodium heparin. Test compounds are diluted to ten times the desired starting drug concentration in PBS […], followed by three-fold serial dilutions in 10% DMSO in PBS to produce a nine point dose-response curve. […] HWB (100 μl) is added to each well, and after mixing the plates are incubated at 37 C, 5% CO2, 100% humidity for 30 minutes.
Included are induced control, unstained and single stains for compensation adjustments and initial voltage settings. […] Supernatants are removed via suction and the remaining pellets are lysed again with another 1 ml of 1× Pharmingen Lyse Buffer, and plates are spun down as before. Supernatants are aspirated and remaining pellets are washed in FACs buffer (PBS+1% FBS). […] Samples are transferred to a 96 well plate suitable to be run on the HTS 96 well system on the BD LSR II flow cytometer.
Using appropriate excitation and emission wavelengths for the fluorophores used, data are acquired and percent positive cell values are obtained using Cell Quest Software. Results are initially analyzed by FACS analysis software (Flow Jo).
As usually defined, the IC50 is the concentration that gives 50% inhibition. Turning to `Cn1cc(-c2ccnc(-n3ccc4cc(C5CC5)cc(F)c4c3=O)c2CO)cc(Nc2ccc(C(=O)N3CCOCC3)cn2)c1=O` [Compound I-11, 2′-(6-Cyclopropyl-8-fluoro-1-oxo-1H-isoquinolin-2-yl)-3′-hydroxymethyl-1-methyl-5-[5-(morpholine-4-carbonyl)-pyridin-2-ylamino]-1H-[3,4′]bipyridinyl-6-one], the IC50 amounted to 15 nM.
Turning to `CN1CCC[C@H]1c1ccc(Nc2cc(-c3ccnc(-n4ncc5cc(C(C)(C)C)ccc5c4=O)c3CO)nn(C)c2=O)nc1` [Compound I-12, 6-tert-Butyl-2-(3-hydroxymethyl-4-{1-methyl-5-[5-((S)-1-methyl-pyrrolidin-2-yl)-pyridin-2-ylamino]-6-oxo-1,6-dihydro-pyridazin-3-yl}-pyridin-2-yl)-2H-phthalazin-1-one], the IC50 was determined as 28 nM.
On to `CN1CCC(c2ccc(Nc3cc(-c4ccnc(-n5ncc6cc(C(C)(C)C)ccc6c5=O)c4CO)nn(C)c3=O)nc2)CC1` [Compound I-13, 6-tert-Butyl-2-{3-hydroxymethyl-4-[1-methyl-5-(1′-methyl-1′,2′,3′,4′,5′,6′-hexahydro-[3,4′]bipyridinyl-6-ylamino)-6-oxo-1,6-dihydro-pyridazin-3-yl]-pyridin-2-yl}-2H-phthalazin-1-one], for which the IC50 is 47 nM.
Regarding `CCN1CCC(c2ccc(Nc3cc(-c4ccnc(-n5ncc6cc(C(C)(C)C)cc(F)c6c5=O)c4CO)nn(C)c3=O)nc2)CC1` [Compound I-14, 6-tert-Butyl-2-{4-[5-(1′-ethyl-1′,2′,3′,4′,5′,6′-hexahydro-[3,4′]bipyridinyl-6-ylamino)-1-methyl-6-oxo-1,6-dihydro-pyridazin-3-yl]-3-hydroxymethyl-pyridin-2-yl}-8-fluoro-2H-phthalazin-1-one], the concentration for half-maximal inhibition (IC50) is 6 nM.
Turning to `Cn1nc(-c2ccnc(-n3ncc4cc(C(C)(C)C)cc(F)c4c3=O)c2CO)cc(Nc2ccc(OC(C)(C)CN3CCC3)cn2)c1=O` [Compound I-15, 2-(4-{5-[5-(2-Azetidin-1-yl-1,1-dimethyl-ethoxy)-pyridin-2-ylamino]-1-methyl-6-oxo-1,6-dihydro-pyridazin-3-yl}-3-hydroxymethyl-pyridin-2-yl)-6-tert-butyl-8-fluoro-2H-phthalazin-1-one], the IC50 turned out to be 3 nM.
For `Cn1nc(-c2ccnc(-n3ncc4cc(C(C)(C)C)ccc4c3=O)c2CO)cc(Nc2ccc(OC(C)(C)CN3CCC3)cn2)c1=O` [Compound I-16, 2-(4-{5-[5-(2-Azetidin-1-yl-1,1-dimethyl-ethoxy)-pyridin-2-ylamino]-1-methyl-6-oxo-1,6-dihydro-pyridazin-3-yl}-3-hydroxymethyl-pyridin-2-yl)-6-tert-butyl-2H-phthalazin-1-one] the value was 28 nM; for `Cn1nc(Nc2cc(-c3ccnc(-n4ncc5cc(C(C)(C)C)cc(F)c5c4=O)c3CO)nn(C)c2=O)cc1CN1CCC1` [Compound I-17, 2-{4-[5-(5-Azetidin-1-ylmethyl-1-methyl-1H-pyrazol-3-ylamino)-1-methyl-6-oxo-1,6-dihydro-pyridazin-3-yl]-3-hydroxymethyl-pyridin-2-yl}-6-tert-butyl-8-fluoro-2H-phthalazin-1-one], 30 nM; for `CN1CCn2nc(Nc3cc(-c4ccnc(-n5ncc6cc(C(C)(C)C)cc(F)c6c5=O)c4CO)nn(C)c3=O)cc2C1` [Compound I-18, 6-tert-Butyl-8-fluoro-2-{3-hydroxymethyl-4-[1-methyl-5-(5-methyl-4,5,6,7-tetrahydro-pyrazolo[1,5-a]pyrazin-2-ylamino)-6-oxo-1,6-dihydro-pyridazin-3-yl]-pyridin-2-yl}-2H-phthalazin-1-one], 29 nM.
As for `CN1CCn2nc(Nc3cc(-c4ccnc(-n5ncc6cc(C(C)(C)C)ccc6c5=O)c4CO)nn(C)c3=O)cc2C1` [Compound I-19, 6-tert-Butyl-2-{3-hydroxymethyl-4-[1-methyl-5-(5-methyl-4,5,6,7-tetrahydro-pyrazolo[1,5-a]pyrazin-2-ylamino)-6-oxo-1,6-dihydro-pyridazin-3-yl]-pyridin-2-yl}-2H-phthalazin-1-one], the IC50 came out at 24 nM.
With `CN1CCn2nc(Nc3cc(-c4ccnc(-n5ccc6cc(C7CC7)cc(F)c6c5=O)c4CO)nn(C)c3=O)cc2C1` [Compound I-20, 6-Cyclopropyl-8-fluoro-2-{3-hydroxymethyl-4-[1-methyl-5-(5-methyl-4,5,6,7-tetrahydro-pyrazolo[1,5-a]pyrazin-2-ylamino)-6-oxo-1,6-dihydro-pyridazin-3-yl]-pyridin-2-yl}-2H-isoquinolin-1-one], the IC50 is 74 nM.
As for `Cn1nc(-c2ccnc(-n3ncc4cc(C(C)(C)C)cc(F)c4c3=O)c2CO)cc(Nc2cc3n(n2)CCN(C2COC2)C3)c1=O` [Compound I-21, 6-tert-Butyl-8-fluoro-2-{3-hydroxymethyl-4-[1-methyl-5-(5-oxetan-3-yl-4,5,6,7-tetrahydro-pyrazolo[1,5-a]pyrazin-2-ylamino)-6-oxo-1,6-dihydro-pyridazin-3-yl]-pyridin-2-yl}-2H-phthalazin-1-one], the figure is 18 nM.
In the case of `CCN1CCn2nc(Nc3cc(-c4ccnc(-n5ncc6cc(C(C)(C)C)cc(F)c6c5=O)c4CO)nn(C)c3=O)cc2C1` [Compound I-22, 6-tert-Butyl-2-{4-[5-(5-ethyl-4,5,6,7-tetrahydro-pyrazolo[1,5-a]pyrazin-2-ylamino)-1-methyl-6-oxo-1,6-dihydro-pyridazin-3-yl]-3-hydroxymethyl-pyridin-2-yl}-8-fluoro-2H-phthalazin-1-one], the IC50 is 44 nM.
In the case of `CN1CCn2nc(Nc3cc(-c4ccnc(-n5ccc6cc(C(C)(C)C)cc(F)c6c5=O)c4CO)nn(C)c3=O)cc2C1` [Compound I-23, 6-tert-Butyl-8-fluoro-2-{3-hydroxymethyl-4-[1-methyl-5-(5-methyl-4,5,6,7-tetrahydro-pyrazolo[1,5-a]pyrazin-2-ylamino)-6-oxo-1,6-dihydro-pyridazin-3-yl]-pyridin-2-yl}-2H-isoquinolin-1-one], the IC50 was 15 nM.
As for `Cn1nc(-c2ccnc(-n3ccc4cc(C(C)(C)C)cc(F)c4c3=O)c2CO)cc(Nc2cc3n(n2)CCN(C2COC2)C3)c1=O` [Compound I-24, 6-tert-Butyl-8-fluoro-2-{3-hydroxymethyl-4-[1-methyl-5-(5-oxetan-3-yl-4,5,6,7-tetrahydro-pyrazolo[1,5-a]pyrazin-2-ylamino)-6-oxo-1,6-dihydro-pyridazin-3-yl]-pyridin-2-yl}-2H-isoquinolin-1-one], the figure is 6 nM; as for `CCN1CCn2nc(Nc3cc(-c4ccnc(-n5ccc6cc(C(C)(C)C)cc(F)c6c5=O)c4CO)nn(C)c3=O)cc2C1` [Compound I-25, 6-tert-Butyl-2-{4-[5-(5-ethyl-4,5,6,7-tetrahydro-pyrazolo[1,5-a]pyrazin-2-ylamino)-1-methyl-6-oxo-1,6-dihydro-pyridazin-3-yl]-3-hydroxymethyl-pyridin-2-yl}-8-fluoro-2H-isoquinolin-1-one], 3 nM.
As for `Cn1nc(-c2ccnc(-n3ccc4cc(C(C)(C)C)cc(F)c4c3=O)c2CO)cc(Nc2ccc(OC(C)(C)CN3CC(F)(F)C3)cn2)c1=O` [Compound I-27, 6-tert-Butyl-2-[4-(5-{5-[2-(3,3-difluoro-azetidin-1-yl)-1,1-dimethyl-ethoxy]-pyridin-2-ylamino}-1-methyl-6-oxo-1,6-dihydro-pyridazin-3-yl)-3-hydroxymethyl-pyridin-2-yl]-8-fluoro-2H-isoquinolin-1-one], the figure is 62 nM.
For the compound `Cn1cc(-c2nccc(-n3ncc4cc(C(C)(C)C)cc(F)c4c3=O)c2CO)cc(Nc2ccc(C(=O)N3CCOCC3)cn2)c1=O` [Compound I-28, 4-(6-tert-Butyl-8-fluoro-1-oxo-1H-phthalazin-2-yl)-3-hydroxymethyl-1′-methyl-5′-[5-(morpholine-4-carbonyl)-pyridin-2-ylamino]-1′H-[2,3′]bipyridinyl-6′-one], the IC50 is 74 nM.
For `Cn1cc(-c2nccc(-n3ncc4cc(C(C)(C)C)cc(F)c4c3=O)c2CO)cc(Nc2ccc(S(C)(=O)=O)cn2)c1=O` [Compound I-29, 4-(6-tert-Butyl-8-fluoro-1-oxo-1H-phthalazin-2-yl)-3-hydroxymethyl-5′-(5-methanesulfonyl-pyridin-2-ylamino)-1′-methyl-1′H-[2,3′]bipyridinyl-6′-one] the value was 162 nM; for `Cn1nc(-c2ccnc(-n3ncc4cc(C(C)(C)C)cc(F)c4c3=O)c2CO)cc(Nc2ccc(OC(C)(C)CN3CC(F)(F)C3)cn2)c1=O` [Compound I-30, 6-tert-Butyl-2-[4-(5-{5-[2-(3,3-difluoro-azetidin-1-yl)-1,1-dimethyl-ethoxy]-pyridin-2-ylamino}-1-methyl-6-oxo-1,6-dihydro-pyridazin-3-yl)-3-hydroxymethyl-pyridin-2-yl]-8-fluoro-2H-phthalazin-1-one], 55 nM.
For `CN1CCn2nc(Nc3cc(-c4ccnc(-n5ccc6cc(C(C)(C)C#N)cc(F)c6c5=O)c4CO)nn(C)c3=O)cc2C1` [Compound I-31, 2-(8-Fluoro-2-{3-hydroxymethyl-4-[1-methyl-5-(5-methyl-4,5,6,7-tetrahydro-pyrazolo[1,5-a]pyrazin-2-ylamino)-6-oxo-1,6-dihydro-pyridazin-3-yl]-pyridin-2-yl}-1-oxo-1,2-dihydro-isoquinolin-6-yl)-2-methyl-propionitrile] the value was 36 nM.
